Where two headings read alike, the source gives them in different places.
Tests used:
[1] = test system: PC3 a human prostate carcinoma; assay: Proliferation assay, PC3; type: cell-based
Description: (§1) Cell Culture: Human umbilical vein endothelial cells (HUVEC) were obtained from Clonetics (San Diego, Calif.), MCF7 cells were the kind gift of Dr. Dorraya El Ashry (University of Michigan), MDA-MB-231 a human breast carcinoma, PC3 a human prostate carcinoma, and U87-MG a human glioma, cell lines were obtained from ATCC. HUVEC cultures were maintained for up to 5 passages in EGM containing bovine brain extract (Clonetics) and 1× antibiotic-antimycotic (BioWhittaker, Walkersville, Md.). MDA-MB-231, PC3, U87-MG and MCF-7 cells were maintained in DMEM/F12 (1:1) containing 10% (v/v) fetal bovine serum (Hyclone Laboratories, Logan, Utah) and 1× antibiotic-antimycotic. MCF7 cells were used between passage 60 and passage 100.
(§2) Proliferation Assays: Proliferation was measured by cell counting using a Coulter Zl cell counter (Coulter Corporation, Hialeah, Fla.) or by evaluation of DNA synthesis. Each condition was done in triplicate and experiments were repeated at least twice. To determine estrogenicity of the analogs, MCF7 estrogen-dependent proliferation assays were performed. The cells were seeded in complete media at 10,000 cells/well in a 24 well plate after allowing the cells to adhere overnight and the seeding density was determined by cell counts. Cells were washed with PBS (37° C.) and starved by placing them in IMEM-phenol red free media containing 2% charcoal-dextran fetal bovine-stripped serum (Valley Biomedical, Winchester, Va.) and 1× antibiotic-antimycotic. After 3 days of starvation, cells were treated with or without increasing concentrations of compounds, replacing the media every 2-3 days and counted after 7 days of treatment. In order to ensure that only the added test compounds stimulated growth, experiments were performed only with cell cultures that duplicated less than once during the starvation period. Values are expressed as MCF7 stimulation index (SI) relative to 2ME2 (defined as 1.00). A value less than 1.00 indicates reduced estrogenicity. Estradiol is used as a positive control.
(§3) To determine anti-tumor and anti-angiogenic activities of the analogs, proliferation assays were performed by evaluating detection of DNA synthesis by use of the 5-bromo-2′-deoxyuridine (BrdU) cell proliferation colorimetric ELISA kit from Roche (Indianapolis, Ind.) according to the manufacturer's instructions. For BrdU assays, the cells were seeded at 1,000 cells/well (MDA-MB-231, anti-tumor activity) or 3,000 cells/well (HUVEC, anti-angiogenic activity) in a 96 well plate, allowed to attach overnight and then exposed to the compound for 48 h. IC50 value is the concentration at which cell proliferation is inhibited by 50%.
(§4) Antiproliferative activity of the NCEs were assessed in tumor cell lines (MDA-MB-231 a breast carcinoma, PC3 a prostate carcinoma and U87-MG a glioma) and endothelial cells (HUVEC).

U87-MG a human glioma = assay: Proliferation assay, U87-MG; type: cell-based
Description: as §1, §2, §3, §4

[2] = Rat pharmacokinetics after oral delivery of 10 mg/kg, cyclodextrin formulation; type: in vivo; conditions: oral 10 mg/kg, female Sprague Dawley rats
Description: Pharmokinetics of the NCEs were assessed by LC/MS after oral delivery of 10 mg/kg to female Sprague Dawley rats using a cyclodextrin formulation.

[3] = test system: MDA-MB-231 a human breast carcinoma; assay: BrdU proliferation assay, MDA-MB-231 (anti-tumor activity); type: cell-based
Description: as §1, §2, §3, §4

[4] = test system: Human umbilical vein endothelial cells (HUVEC); assay: BrdU proliferation assay, HUVEC (anti-angiogenic activity); type: cell-based
Description: as §1, §2, §3, §4

MCF7 cells = assay: MCF7 estrogen-dependent proliferation assay (estrogenicity); type: cell-based, human; conditions: stimulation index, 2ME2 defined as 1.00; less than 1.00 = reduced estrogenicity; 7 days of treatment
Description: as §1
as §2, with “[…].” for “Values are expressed as MCF7 stimulation index (SI) relative to 2ME2 (defined as 1.00). A value less than 1.00 indicates reduced estrogenicity.”

[5] = test system: Rat hepatocyte suspensions; assay: Hepatocyte incubations, rat; type: in vitro ADME; conditions: rat hepatocytes, NR = no reaction
Description: (§5) Hepatocyte Incubations: An in vitro measure of metabolism using cells from rat and human liver. Rat and human hepatocyte suspensions (10^6 cells per mL of serum-free (H)CL15 culture medium) were incubated with 2 concentrations (1 and 5 μM) of each of the compounds. Stock solutions were prepared in DMSO, and were further diluted in culture medium to the final test concentrations. 7-Ethoxycoumarin (7-EC) were included as a positive control substrate for P450. A 0.1 M 7-EC stock solution was prepared in DMSO, and the final assay concentration was 100 μM. The reactions were initiated by the addition of the substrates, incubated at 37° C., and terminated after 0, 60 and 120 minutes by addition of acetonitrile. The positive 7-EC control reactions were stopped with perchloric acid or ZnSO4 and BaOH after 60-minutes of incubation. The reaction mixture was centrifuged to remove the cell debris, and the supernatant was used for subsequent analysis by HPLC/LC-MS. If necessary, the supernatants were flash frozen in liquid N2 and stored at −70° C. until further analysis. HPLC was used to analyze product formation from 7-EC. Analyses to determine the concentration of the test compounds were carried out using reverse phase HPLC with tandem mass spectrometric detection (LC-MS/MS). Samples were analyzed to measure the disappearance of parent compound over time. The rate of metabolism was estimated by fitting a curve to the data for each concentration against time using GraphPad Prism Version 3.02 software.

[6] = test system: human hepatocyte suspensions; assay: Hepatocyte incubations, human; type: in vitro ADME; conditions: human hepatocytes, NR = no reaction
Description: as §5

[7] = Example 2, Table VII, read-out: IC50 value (μM) PC3
[8] = Example 2, Table VII, read-out: IC50 value (μM) U87-MG
[9] = Example 2, Table VII, read-out: IC50 value (μM) MDA-MB-231
[10] = Example 2, Table VII, read-out: IC50 value (μM) HUVEC

Row | IC50 [1, 7] [µM] | IC50 (U87-MG a human glioma; [8]) [µM] | AUCall [2] [ng·h/mL] | Cmax [2] [ng/mL] | Tmax [2] [min] | T½ [2] [min] | IC50 [3, 9] [µM] | SMILES | IC50 [4, 10] [µM] | other results
1 | 1.91 ± 0.36 | 1.27 ± 0.44 | 4657 | 1379 | 60 | 97.8 | 1.21 ± 0.47 | COc1cc2c(cc1C(N)=O)CC[C@@H]1[C@@H]2CC[C@@]2(C)[C@H]1CCC21OCCO1 [ENMD-1565, 17-(1,3-dioxolane)-2-methoxyestra-1,3,5(10)-triene-3 carboxamide] | 0.91 | –
2 | 1.14 ± 0.45 | 0.71 ± 0.09 | 1442 | 665 | 30 | 53.4 | 0.89 ± 0.21 | COc1cc2c(cc1C(N)=O)CC[C@@H]1[C@@H]2CC[C@]2(C)[C@@H](OC)CC[C@@H]12 [ENMD-1756, 2,17β-(bismethoxy)estra-1,3,5(10)-triene-3-carboxamide] | 0.62 | –
3 | – | – | – | – | – | – | – | COc1cc2c(cc1O)CC[C@@H]1[C@@H]2CC[C@]2(C)[C@@H](O)CC[C@@H]12 [Compound 1, 2-Methoxyestradiol, reference compound] | – | IC50 ([1]; Homo sapiens, proliferation, read-out: PC3 (IC50 μM)): 1.08 ± 0.5 µM; IC50 (U87-MG a human glioma; Homo sapiens, U-87 MG, proliferation, read-out: U87-MG (IC50 μM)): 1.48 ± 0.62 µM; MCF7 SI Relative to 2ME2 (MCF7 cells): 1.00; Hepatocyte Rat 60/120′ (1 uM): 60′ ([5]; 1 uM, 60 minutes): 0/0; Hepatocyte Rat 60/120′ (1 uM): 120′ ([5]; 1 uM, 120 minutes): 0/0; Hepatocyte Rat 60/120′ (5 uM): 60′ ([5]; 5 uM, 60 minutes, unit assumed): 39%; Hepatocyte Rat 60/120′ (5 uM): 120′ ([5]; 5 uM, 120 minutes, unit assumed): 24%; Hepatocyte Human 60/120′ (1 uM): 60′ ([6]; 1 uM, 60 minutes): 0/0; Hepatocyte Human 60/120′ (1 uM): 120′ ([6]; 1 uM, 120 minutes): 0/0; Hepatocyte Human 60/120′ (5 uM): 60′ ([6]; 5 uM, 60 minutes): 20; Hepatocyte Human 60/120′ (5 uM): 120′ ([6]; 5 uM, 120 minutes): 0; IC50 ([3]; Homo sapiens, MDA-MB-231, BrdU DNA synthesis, 48 h exposure, read-out: MDA-MB-231 (IC50 μM)): 0.69 ± 0.14 µM; IC50 ([4]; Homo sapiens, HUVEC, BrdU DNA synthesis, 48 h exposure, read-out: HUVEC (IC50 μM)): 0.68 ± 0.15 µM
